The source of these data is patent publication US20160038519A1, “ADMINISTRATION OF KARENITECIN FOR THE TREATMENT OF ADVANCED OVARIAN CANCER, INCLUDING CHEMOTHERAPY-RESISTANT AND/OR THE MUCINOUS ADENOCARCINOMA SUB-TYPES” (BioNumerik Pharmaceuticals, Inc., priority 2014, published 2016).

Structures are written as SMILES. Where two headings read alike, the source gives them in different places. A value given as a limit tells only on which side of the number the result lay.

In one data set the test system is OMC3 Cell Line. The data set can be described thus: SRB cytotoxicity assay, OMC3. Format: cell-based, human. The note with it: Homo sapiens. As to the method:
(§1) In vitro studies were conducted in human mucinous ovarian cancer cell lines including JHOM2B, OMC3, and COV644. In one series of experiments, the dose response curves for BNP1350 (also known as Karenitecin), SN-38 (Irinotecan), and Topotecan were obtained and IC50 values were determined. In a second series of experiments, the effect of BNP7787 (2,2′-dithio-bis-ethane sulfonate; Tavocept) on BNP1350-induced cytotoxicity at selected BNP1350 concentrations was examined.
(§2) The JHOM2B and OMC3 cell lines were purchased from Riken Cell Bank (Japan). The COV644 cell line was purchased from SigmaAldrich. Cells were maintained as monolayered cultures in T-75 flasks and then seeded to microtiter plate wells for experiments. Population doubling-times for these three cell lines were long (i.e., exceeding 40 hours, and for some of the cell lines approaching 96 hours); therefore, the Applicants conducted initial pilot experiments and determined optimal seeding density to obtain A570 values in untreated controls that would fall within the linear range of the SRB assay after seven (7) total days of cell growth. JHOM2B cells were cultured in DMEM:F12 (1:1)+0.1 mM non-essential amino acids (NEAA)+10% FBS and were seeded at 6,000 cells per well. OMC3 cells were cultured in HamF12+10% FBS and were seeded at 8,000 cells per well. COV644 cells were cultured in DMEM+2 mM glutamine+10% FBS and were seeded at 6,000 cells per well.
(§3) The cells were manipulated in a Microzone laminar flow hood traditionally used for maintaining aseptic environments around automated instrumentation such as microplate robots, and the like. Cells were grown and maintained at 37° C. in a humidified atmosphere containing 5% CO2 in a water jacketed cell culture incubator (Forma Scientific). Cells were counted using a ViCell counter (Beckman-Coulter). An automated plate washer/stacker (ELx405/BioStak from BioTek Instruments) and a microplate reader (SpectraMax Plus from Molecular Devices) were used for conducting the SRB assay and determining A570 values for wells in the plates and the percentage of control values. Prior to SRB assays, cell viability was monitored by evaluation of microtiter plate wells. Dead cells detach and float while living cells remain attached to the bottom of the cell well.
(§4) SN-38 (Irinotecan; Sigma H0165, lot MKBQ4981) and Topotecan (Sigma T2705, lot 052M4728V) were purchased from SigmaAldrich. BNP1350 (lot KN-C192-135) and BNP7787 (lot 205001) were synthesized at BioNumerik Pharmaceuticals, Inc. (San Antonio, Tex.). BNP1350, SN38, and Topotecan were prepared as 2.5, 2.5, and 25 mM stocks in DMSO (ATCC, cell culture grade).
(§5) The sulforhodamine B (SRB) cytotoxicity assay was used to assess cell survival. Briefly, after the medium was decanted from individual plate wells, trichloroacetic acid (100 μL of 10.0 percent solution) was added to each well, and the plates were incubated at 4° C. for 1 hour. The plates were washed five times with water using an automated microplate washer (Model ELx405, Bio-Tek Instruments), SRB solution (100 μL of 0.4% SRB dissolved in 1.0 percent acetic acid) was added, and plates remained at room temperature for 15 minutes. The plates were then washed five times using acetic acid (1.0 percent), air dried, and bound dye was solubilized in Tris base (150 μL, 10 mM). Plates were agitated (gently) for 5 minutes and the absorbance values of the SRB dye-protein adduct at 570 nanometers (A570) were determined using an automated microtiter plate reader (SpectraMax Plus, Molecular Devices). IC50 values were extrapolated from dose response curves of the data using OriginLab Software.
(In SRB staining, fixed cells bind dye roughly in proportion to their protein.)

The next data set relates to COV644 Cell Line. The data set can be described thus: SRB cytotoxicity assay, COV644. Format: cell-based, human. As to the method: as §1, §2, §3, §4, §5
The 1050 values exceeded the solubility in medium for each compound—the limit of solubility in cell culture medium for the compounds were as follows: 2 micromolar for BNP1350 and SN38, and 20 micromolar for Topotecan. Cells were treated for periods of 2.5 hours or 6 hours and, in each case, the […] values were not reached. Longer treatments were not performed.

Another data set has as its system solid tumors. The note with it: for Time on trial with no evidence of progressive disease: oral.
For data set [1], the target named is T1, Breast Cancer Resistance Protein (BCRP) (Homo sapiens, UniProt Q9UNQ0).
T1 sequence (Q9UNQ0 1-655): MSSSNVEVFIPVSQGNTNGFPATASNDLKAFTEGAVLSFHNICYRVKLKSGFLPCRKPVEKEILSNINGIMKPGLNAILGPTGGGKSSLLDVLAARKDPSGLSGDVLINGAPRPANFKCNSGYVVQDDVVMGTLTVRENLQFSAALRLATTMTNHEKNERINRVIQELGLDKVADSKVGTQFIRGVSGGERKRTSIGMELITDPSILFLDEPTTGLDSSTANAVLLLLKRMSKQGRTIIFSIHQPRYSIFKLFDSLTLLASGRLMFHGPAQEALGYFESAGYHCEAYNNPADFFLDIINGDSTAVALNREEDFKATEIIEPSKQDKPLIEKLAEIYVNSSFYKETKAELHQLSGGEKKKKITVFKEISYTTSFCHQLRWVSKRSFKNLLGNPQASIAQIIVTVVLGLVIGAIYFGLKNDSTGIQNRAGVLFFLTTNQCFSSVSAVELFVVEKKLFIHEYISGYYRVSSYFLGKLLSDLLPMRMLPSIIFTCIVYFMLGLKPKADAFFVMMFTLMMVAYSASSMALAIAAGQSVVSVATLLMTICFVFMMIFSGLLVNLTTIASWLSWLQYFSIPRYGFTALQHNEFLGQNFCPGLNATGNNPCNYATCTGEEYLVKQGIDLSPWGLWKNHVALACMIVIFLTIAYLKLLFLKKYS
Particulars: cited from earlier work.

Method for solid tumors: A Phase I clinical trial (the “Oral Karenitecin Phase I Trial”) was performed to determine the maximum tolerated dose (MTD) of oral Karenitecin in subjects with solid tumors given in a dose-escalated manner (starting at 0.5 mg/m^2) and administered 3-times per week (MWF or TTS) for 3 consecutive weeks followed by a one-week treatment rest.
In Stage I, subjects received Karenitecin as a single oral dose 3 times per week for 3 consecutive weeks followed by a one-week treatment rest. In Stage 1, some of subjects underwent pharmacokinetic sampling, and first received a single i.v. dose of Karenitecin (at the appropriate dosage level) followed by oral Karenitecin 4 to 7 days following the i.v. dose on a MWF or TTS schedule. Patients then received oral Karenitecin for all subsequent treatments.
In Stage 2, Karenitecin was administered in a dose-escalated manner to approximately 16 subjects with solid tumors in order to determine the maximum tolerated dose (MTD). The initial dose escalation involved cohorts of one new subject per dose level. The starting dose was 0.5 mg/m^2 and dose escalation proceeded in 0.5 mg/m^2 increments. One-subject cohorts were utilized until the occurrence of a dose-limiting toxicity (DLT) or NCI CTCAE≧grade 2 toxicity was observed during the DLT observation period. Patients in Stage 2 received oral Karenitecin at the appropriate dose level on a MTWTF schedule for three (3) consecutive weeks, followed by a one-week rest period.

Usually IC50 stands for the concentration at which inhibition is half-maximal. On to `CC[C@@]1(O)C(=O)OCc2c1cc1n(c2=O)Cc2c-1nc1ccccc1c2CC[Si](C)(C)C` [Karenitecin, (4S)-4-ethyl-4-hydroxy-11-[2-(trimethylsilyl)ethyl]-1H-pyrano[3′:4′:6,7]indolizino[1,2-b]quinoline-3,14(4H,12H)-dione], for which the half-inhibitory concentration (IC50) in the data set on OMC3 Cell Line (2 hour drug exposure, average of Test 1 and Test 2, read-out: IC50, Average) was 49.5 nM; in the data set on OMC3 Cell Line (2 hour drug exposure, read-out: IC50, Test 1 (2 replicate plates)), 57 ± 4 nM; in the data set on OMC3 Cell Line (2 hour drug exposure, read-out: IC50, Test 2 (3 replicate plates)), 42 ± 6 nM; in the data set with OMC3 Cell Line (read-out: IC50 values), 49.5 nM; with COV644 Cell Line (Homo sapiens, 2, 5, and 6 hour drug exposures, did not reach 50% of Control, read-out: IC50, Test 1 (2 replicate plates)), above 2000 nM; in the data set with COV644 Cell Line (Homo sapiens, 2, 5, and 6 hour drug exposures, did not reach 50% of Control, read-out: IC50, Test 2 (2 to 3 replicate plates)), above 2000 nM. Also, the half-inhibitory concentration (IC50) is above 2000 nM in the data set with COV644 Cell Line (Homo sapiens, 2, 5, and 6 hour drug exposures, read-out: IC50, Average); above 2000 nM in the data set with COV644 Cell Line (Homo sapiens, read-out: IC50 values). In addition, the “Tolerability of oral administration” value with solid tumors (in vivo, po) is “generally well-tolerated”. The “Time on trial with no evidence of progressive disease” value (“Time on trial with no evidence” below) is on record as “approximately 16 months” with solid tumors (a patient with advanced ovarian cancer); “approximately 19.5 months” in the data set with solid tumors (a patient with breast cancer); “approximately 12 months” in the data set on solid tumors (a patient with carcinoma of the parotid gland); “approximately 8 months” in the data set with solid tumors (a patient with colorectal cancer); “approximately 7 months” in the data set on solid tumors (a patient with leiomyosarcoma); “approximately 15 months” in the data set with solid tumors (a patient with melanoma). Besides, the “Time on trial with no evidence” value was “approximately 23 months” in the data set with solid tumors (a patient with neuroendocrine cancer); “approximately 36 months” with solid tumors (a patient with non-small cell lung cancer); “approximately 7 months” in the data set on solid tumors (a patient with pancreatic cancer); “approximately 8 months” in the data set with solid tumors (a patient with peritoneal papillary adenocarcinoma cancer); “approximately 7 months” in the data set with solid tumors (a patient with prostate cancer); “approximately 6 months” in the data set with solid tumors (a patient with refractory small cell cancer). The “Time on trial with no evidence” value in the data set with solid tumors (a patient with sarcoma) is listed as “approximately 9 months”. Moreover, the “Sensitivity to tumor-mediated drug resistance mechanisms, including BCRP” value in data set [1] is “insensitive”.
